This test concerns the target T1, human PAH with the R408W mutation (Homo sapiens, UniProt P00439, R408W).
T1 construct: expressed in transfected cells
T1 sequence (P00439 1-452 R408W): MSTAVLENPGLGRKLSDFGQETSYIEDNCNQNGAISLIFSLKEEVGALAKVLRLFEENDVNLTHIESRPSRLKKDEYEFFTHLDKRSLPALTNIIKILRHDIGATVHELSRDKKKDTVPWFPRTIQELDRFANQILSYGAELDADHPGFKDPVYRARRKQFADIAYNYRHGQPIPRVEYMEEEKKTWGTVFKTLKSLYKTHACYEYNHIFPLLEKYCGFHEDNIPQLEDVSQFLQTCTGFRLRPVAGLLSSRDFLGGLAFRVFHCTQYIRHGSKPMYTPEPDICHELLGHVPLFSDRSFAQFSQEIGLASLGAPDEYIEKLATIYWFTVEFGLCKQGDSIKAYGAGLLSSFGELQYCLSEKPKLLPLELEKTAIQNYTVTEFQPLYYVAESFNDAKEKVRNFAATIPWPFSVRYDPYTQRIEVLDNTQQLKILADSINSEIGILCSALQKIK
Description: Cell Based Phenylalanine Flux Assay.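 Note: after compound treatment, cells received sepiapterin plus isotope-labelled Phenylalanine for 4 hours, then labelled Tyrosine in the medium was quantified, 10-point 2-fold dilution series run in duplicate.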 The settings on record: A375 cells expressing human R408W PAH; 24 hrs compound incubation; 13C-Tyrosine by LC-MS; average where tested multiple times; read-out: AC50.

As a reminder, the AC50 is the concentration giving half of the maximal activity seen.

For `O=C(c1nnc(-c2ncccc2F)o1)N1CCc2[nH]cnc2[C@H]1c1cc2cccc(C(F)F)n2n1` [Example 1580, (S)-(4-(7-(difluoromethyl)pyrazolo[1,5-a]pyridin-2-yl)-6,7-dihydro-1H-imidazo[4,5-c]pyridin-5(4H)-yl)(5-(3-fluoropyridin-2-yl)-1,3,4-oxadiazol-2-yl)methanone], the AC50 was less than 500 nM.

Consider `O=C(c1nnc(-c2ncccc2F)o1)N1CCc2[nH]cnc2[C@@H]1c1cc2cccc(C(F)F)n2n1` [Example 1581, (R)-(4-(7-(difluoromethyl)pyrazolo[1,5-a]pyridin-2-yl)-6,7-dihydro-1H-imidazo[4,5-c]pyridin-5(4H)-yl)(5-(3-fluoropyridin-2-yl)-1,3,4-oxadiazol-2-yl)methanone], for which the half-maximal activity concentration (AC50) is more than 5000 nM. In the case of `Cc1nn(C)cc1-c1nnc(C(=O)N2CCc3[nH]cnc3[C@H]2c2cc3cccc(C(F)F)n3n2)o1` [Example 1582, (S)-(4-(7-(difluoromethyl)pyrazolo[1,5-a]pyridin-2-yl)-6,7-dihydro-1H-imidazo[4,5-c]pyridin-5(4H)-yl)(5-(1,3-dimethyl-1H-pyrazol-4-yl)-1,3,4-oxadiazol-2-yl)methanone] it was 500 to 1000 nM; in that of `Cc1nn(C)cc1-c1nnc(C(=O)N2CCc3[nH]cnc3[C@@H]2c2cc3cccc(C(F)F)n3n2)o1` [Example 1583, (R)-(4-(7-(difluoromethyl)pyrazolo[1,5-a]pyridin-2-yl)-6,7-dihydro-1H-imidazo[4,5-c]pyridin-5(4H)-yl)(5-(1,3-dimethyl-1H-pyrazol-4-yl)-1,3,4-oxadiazol-2-yl)methanone], more than 5000 nM; in that of `Cc1cnn(C)c1-c1nnc(C(=O)N2CCc3[nH]cnc3[C@H]2c2cc3cccc(C(F)F)n3n2)o1` [Example 1584, (S)-(4-(7-(difluoromethyl)pyrazolo[1,5-a]pyridin-2-yl)-6,7-dihydro-1H-imidazo[4,5-c]pyridin-5(4H)-yl)(5-(1,4-dimethyl-1H-pyrazol-5-yl)-1,3,4-oxadiazol-2-yl)methanone], 500 to 1000 nM.

Regarding `Cc1cnn(C)c1-c1nnc(C(=O)N2CCc3[nH]cnc3[C@@H]2c2cc3cccc(C(F)F)n3n2)o1` [Example 1585, (R)-(4-(7-(difluoromethyl)pyrazolo[1,5-a]pyridin-2-yl)-6,7-dihydro-1H-imidazo[4,5-c]pyridin-5(4H)-yl)(5-(1,4-dimethyl-1H-pyrazol-5-yl)-1,3,4-oxadiazol-2-yl)methanone], the AC50 is more than 5000 nM. For `Cc1cccn2nc([C@H]3c4nc[nH]c4CCN3c3nnc(C4CC4)o3)cc12` [Example 1588, (R)-2-cyclopropyl-5-(4-(4-methylpyrazolo[1,5-a]pyridin-2-yl)-6,7-dihydro-1H-imidazo[4,5-c]pyridin-5(4H)-yl)-1,3,4-oxadiazole], the AC50 was more than 5000 nM. Regarding `Cc1cccn2nc([C@@H]3c4nc[nH]c4CCN3c3nnc(C4CC4)o3)cc12` [Example 1589, (S)-2-cyclopropyl-5-(4-(4-methylpyrazolo[1,5-a]pyridin-2-yl)-6,7-dihydro-1H-imidazo[4,5-c]pyridin-5(4H)-yl)-1,3,4-oxadiazole], the AC50 fell in the range of 500 to 1000 nM. In the case of `c1cnc(N2CCc3[nH]cnc3[C@@H]2c2cc3ccccn3n2)nc1` [Example 1593, (R)-4-(pyrazolo[1,5-a]pyridin-2-yl)-5-(pyrimidin-2-yl)-4,5,6,7-tetrahydro-1H-imidazo[4,5-c]pyridine], the concentration at half-maximal activity (AC50) fell in the range of 1000 to 5000 nM.

Consider `Cc1cccc(-c2nnc(C(=O)N3CCc4[nH]cnc4[C@H]3c3cc4cccc(C(F)F)n4n3)o2)n1` [Example 1594, (S)-(4-(7-(difluoromethyl)pyrazolo[1,5-a]pyridin-2-yl)-6,7-dihydro-1H-imidazo[4,5-c]pyridin-5(4H)-yl)(5-(6-methylpyridin-2-yl)-1,3,4-oxadiazol-2-yl)methanone], for which the concentration at half-maximal activity (AC50) was less than 500 nM. Regarding `Cc1cccc(-c2nnc(C(=O)N3CCc4[nH]cnc4[C@@H]3c3cc4cccc(C(F)F)n4n3)o2)n1` [Example 1595, (R)-(4-(7-(difluoromethyl)pyrazolo[1,5-a]pyridin-2-yl)-6,7-dihydro-1H-imidazo[4,5-c]pyridin-5(4H)-yl)(5-(6-methylpyridin-2-yl)-1,3,4-oxadiazol-2-yl)methanone], the AC50 is more than 5000 nM.

As for `Cn1ccc(-c2ccc3c(C(=O)N4CCc5[nH]cnc5[C@H]4c4cc5c(C(F)(F)F)cccn5n4)cnn3c2)n1` [Example 1596, (S)-(6-(1-methyl-1H-pyrazol-3-yl)pyrazolo[1,5-a]pyridin-3-yl)(4-(4-(trifluoromethyl)pyrazolo[1,5-a]pyridin-2-yl)-6,7-dihydro-1H-imidazo[4,5-c]pyridin-5(4H)-yl)methanone], the concentration at half-maximal activity (AC50) was less than 500 nM. In the case of `Cn1ccc(-c2ccc3c(C(=O)N4CCc5[nH]cnc5[C@@H]4c4cc5c(C(F)(F)F)cccn5n4)cnn3c2)n1` [Example 1597, (R)-(6-(1-methyl-1H-pyrazol-3-yl)pyrazolo[1,5-a)pyridin-3-yl)(4-(4-(trifluoromethyl)pyrazolo[1,5-a]pyridin-2-yl)-6,7-dihydro-1H-imidazo[4,5-c]pyridin-5(4H)-yl)methanone] it was more than 5000 nM; in that of `Cc1cccn2nc([C@@H]3c4nc[nH]c4CCN3C(=O)c3nnc(C4CC(F)(F)C4)o3)cc12` [Example 1598, (S)-(5-(3,3-difluorocyclobutyl)-1,3,4-oxadiazol-2-yl)(4-(4-methylpyrazolo[1,5-a]pyridin-2-yl)-6,7-dihydro-1H-imidazo[4,5-c]pyridin-5(4H)-yl)methanone], 500 to 1000 nM. The value for `Cc1cccn2nc([C@H]3c4nc[nH]c4CCN3C(=O)c3nnc(C4CC(F)(F)C4)o3)cc12` [Example 1599, (R)-(5-(3,3-difluorocyclobutyl)-1,3,4-oxadiazol-2-yl)(4-(4-methylpyrazolo[1,5-a]pyridin-2-yl)-6,7-dihydro-1H-imidazo[4,5-c]pyridin-5(4H)-yl)methanone] was more than 5000 nM. With `O=C(c1nnc(C2CC(F)(F)C2)o1)N1CCc2[nH]cnc2[C@H]1c1cc2c(C(F)(F)F)cccn2n1` [Example 1600, (S)-(5-(3,3-difluorocyclobutyl)-1,3,4-oxadiazol-2-yl)(4-(4-(trifluoromethyl)pyrazolo[1,5-a]pyridin-2-yl)-6,7-dihydro-1H-imidazo[4,5-c]pyridin-5(4H)-yl)methanone], the AC50 is 500 to 1000 nM. In the case of `O=C(c1nnc(C2CC(F)(F)C2)o1)N1CCc2[nH]cnc2[C@H]1c1cc2c(C(F)F)cccn2n1` [Example 1602, (S)-(5-(3,3-difluorocyclobutyl)-1,3,4-oxadiazol-2-yl)(4-(4-(difluoromethyl)pyrazolo[1,5-a]pyridin-2-yl)-6,7-dihydro-1H-imidazo[4,5-c]pyridin-5(4H)-yl)methanone] it was 500 to 1000 nM. Turning to `O=C(c1nnc(C2CC(F)(F)C2)o1)N1CCc2[nH]cnc2[C@H]1c1cc2c(F)cccn2n1` [Example 1604, (S)-(5-(3,3-difluorocyclobutyl)-1,3,4-oxadiazol-2-yl)(4-(4-fluoropyrazolo[1,5-a)pyridin-2-yl)-6,7-dihydro-1H-imidazo[4,5-c]pyridin-5(4H)-yl)methanone], the AC50 is 500 to 1000 nM. For `O=C(c1nnc(C2CC(F)(F)C2)o1)N1CCc2[nH]cnc2[C@@H]1c1cc2c(F)cccn2n1` [Example 1605, (R)-(5-(3,3-difluorocyclobutyl)-1,3,4-oxadiazol-2-yl)(4-(4-fluoropyrazolo[1,5-a]pyridin-2-yl)-6,7-dihydro-1H-imidazo[4,5-c]pyridin-5(4H)-yl)methanone], the AC50 was more than 5000 nM. `FC(F)c1cccn2nc([C@@H]3c4nc[nH]c4CCN3c3nnc(C4CC4)o3)cc12` [Example 1607, (S)-2-cyclopropyl-5-(4-(4-(difluoromethyl)pyrazolo[1,5-a]pyridin-2-yl)-6,7-dihydro-1H-imidazo[4,5-c]pyridin-5(4H)-yl)-1,3,4-oxadiazole]: the AC50 was in the range of 500 to 1000 nM. In the case of `Cn1nccc1-c1nnc(C(=O)N2CCc3[nH]cnc3[C@H]2c2cc3cccc(C(F)F)n3n2)o1` [Example 1608, (S)-(4-(7-(difluoromethyl)pyrazolo[1,5-a]pyridin-2-yl)-6,7-dihydro-1H-imidazo[4,5-c]pyridin-5(4H)-yl)(5-(1-methyl-1H-pyrazol-5-yl)-1,3,4-oxadiazol-2-yl)methanone], the half-maximal activity concentration (AC50) lay within 500 to 1000 nM. In the case of `Cn1nccc1-c1nnc(C(=O)N2CCc3[nH]cnc3[C@@H]2c2cc3cccc(C(F)F)n3n2)o1` [Example 1609, (R)-(4-(7-(difluoromethyl)pyrazolo[1,5-a]pyridin-2-yl)-6,7-dihydro-1H-imidazo[4,5-c]pyridin-5(4H)-yl)(5-(1-methyl-1H-pyrazol-5-yl)-1,3,4-oxadiazol-2-yl)methanone], the AC50 is more than 5000 nM. For `FC(F)(F)c1cccn2nc([C@@H]3c4nc[nH]c4CCN3c3nnc(-c4ccccn4)o3)cc12` [Example 1610, (S)-2-(pyridin-2-yl)-5-(4-(4-(trifluoromethyl)pyrazolo[1,5-a]pyridin-2-yl)-6,7-dihydro-1H-imidazo[4,5-c]pyridin-5(4H)-yl)-1,3,4-oxadiazole], the half-maximal activity concentration (AC50) was in the range of 500 to 1000 nM. For the molecule `Fc1cccn2nc([C@H]3c4nc[nH]c4CCN3c3nnc(-c4ccccn4)o3)cc12` [Example 1612, (R)-2-(4-(4-fluoropyrazolo[1,5-a]pyridin-2-yl)-6,7-dihydro-1H-imidazo[4,5-c]pyridin-5(4H)-yl)-5-(pyridin-2-yl)-1,3,4-oxadiazole], the AC50 was more than 5000 nM.
